Laboratory results taken from patent US5599953A, “C-glycoside analogues of N-(4-hydroxyphenyl)retinamide-O-glucuronide” (The Ohio State Research Foundation, priority 1995, dated 1997).
Read-outs that look alike come from different tables or passages of the source.

Legend:
[1] = background statement; cited from earlier work
β-glucuronidase [2] = target: T1, β-glucuronidase (Homo sapiens, UniProt P08236); assay: Stability toward β-glucuronidase mediated hydrolysis; assay type: in vitro ADME; details: β-glucuronidase
T1 sequence (P08236 23-651): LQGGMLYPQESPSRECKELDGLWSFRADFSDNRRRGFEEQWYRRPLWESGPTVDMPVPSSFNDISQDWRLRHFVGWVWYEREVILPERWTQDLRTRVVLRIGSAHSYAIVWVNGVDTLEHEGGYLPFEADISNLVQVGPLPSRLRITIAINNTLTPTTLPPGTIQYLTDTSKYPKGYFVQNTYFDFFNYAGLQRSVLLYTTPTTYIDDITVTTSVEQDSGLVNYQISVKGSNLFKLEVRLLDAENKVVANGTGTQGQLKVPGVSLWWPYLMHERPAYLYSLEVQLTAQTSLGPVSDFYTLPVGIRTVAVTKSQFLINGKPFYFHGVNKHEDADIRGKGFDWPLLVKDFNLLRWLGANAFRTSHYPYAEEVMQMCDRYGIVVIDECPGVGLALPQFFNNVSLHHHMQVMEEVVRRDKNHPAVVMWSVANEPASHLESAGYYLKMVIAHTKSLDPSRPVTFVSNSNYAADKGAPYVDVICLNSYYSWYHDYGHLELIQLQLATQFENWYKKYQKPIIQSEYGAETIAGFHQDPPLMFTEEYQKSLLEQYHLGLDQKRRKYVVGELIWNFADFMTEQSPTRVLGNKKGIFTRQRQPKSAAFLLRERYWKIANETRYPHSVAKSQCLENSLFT
Protocol: Similarly 1-(D-glucopyranosyluronosyl) retinamide and RAG were evaluated for their stability toward β-glucuronidase medicated hydrolysis under the same conditions as described above.

[3] = Acid stability, 0.1N methanolic HCl at 37° C. for 2 hours; assay type: physicochemical
Protocol: To determine the stability of the C-glucopyranosiduronate linkage towards acidic conditions, samples of 4-HPR-O-glucuronide, 4-(retinamido)phenyl-C-glucuronide and 4-(retinamido)benzyl-C-glucuronide were treated with 0.1N methanolic HCl at 37° C. for 2 hours.

β-glucuronidase [4] = target: T1, β-glucuronidase; details: background statement; cited from earlier work
mRARβ = target: T2, mRARβ (Mus musculus, UniProt P22605); assay: Drug competition with (3H)retinoic acid binding, mRARβ; details: read-out: percent reduction of binding of the (3H)retinoic acid, mRARβ; 1 μM drug; 5 nM [3H]RA
T2 construct: made in house; host or cells: Spodoptera frugiperda insect cells, baculovirus (whole cell extract)
T2 sequence (P22605 1-448 isoform P22605-3): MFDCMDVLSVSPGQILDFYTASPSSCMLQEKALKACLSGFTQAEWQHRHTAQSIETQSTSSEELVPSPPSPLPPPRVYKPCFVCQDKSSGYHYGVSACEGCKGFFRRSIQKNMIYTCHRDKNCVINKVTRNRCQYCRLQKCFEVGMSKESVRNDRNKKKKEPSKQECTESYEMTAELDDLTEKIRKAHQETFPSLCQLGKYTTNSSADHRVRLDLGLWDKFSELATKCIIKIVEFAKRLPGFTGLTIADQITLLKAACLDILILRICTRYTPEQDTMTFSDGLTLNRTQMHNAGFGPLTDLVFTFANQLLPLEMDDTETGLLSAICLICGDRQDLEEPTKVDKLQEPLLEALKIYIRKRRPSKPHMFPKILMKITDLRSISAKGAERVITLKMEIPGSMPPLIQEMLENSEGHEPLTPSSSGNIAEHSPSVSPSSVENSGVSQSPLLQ

[5] = test system: MCF-7 human mammary cell tumor culture; details: Bhatnagar et al.; cited from earlier work
mRARγ = target: T3, mRARγ (Mus musculus, UniProt P18911); assay: Drug competition with (3H)retinoic acid binding, mRARγ; details: read-out: percent reduction of binding of the (3H)retinoic acid, mRARγ; 1 μM drug; 5 nM [3H]RA
T3 construct: made in house; host or cells: Spodoptera frugiperda insect cells, baculovirus (whole cell extract)
T3 sequence (P18911 1-458): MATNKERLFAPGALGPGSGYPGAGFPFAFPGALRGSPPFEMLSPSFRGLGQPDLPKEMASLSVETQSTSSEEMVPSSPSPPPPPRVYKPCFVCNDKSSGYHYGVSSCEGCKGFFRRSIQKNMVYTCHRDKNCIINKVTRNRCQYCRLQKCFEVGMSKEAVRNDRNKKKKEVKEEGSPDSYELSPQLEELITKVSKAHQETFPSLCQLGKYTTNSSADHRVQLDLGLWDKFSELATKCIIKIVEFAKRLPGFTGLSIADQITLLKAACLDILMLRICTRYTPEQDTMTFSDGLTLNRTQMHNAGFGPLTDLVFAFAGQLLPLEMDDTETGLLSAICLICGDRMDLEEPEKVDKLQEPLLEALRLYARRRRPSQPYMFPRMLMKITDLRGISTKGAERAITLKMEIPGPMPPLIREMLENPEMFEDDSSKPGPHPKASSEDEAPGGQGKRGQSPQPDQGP

mRARα = target: T4, mRARα (Mus musculus, UniProt P11416); assay: Drug competition with (3H)retinoic acid binding, mRARα; details: read-out: percent reduction of binding of the (3H)retinoic acid, mRARα; 1 μM drug; 5 nM [3H]RA
T4 construct: made in house; host or cells: Spodoptera frugiperda insect cells, baculovirus (whole cell extract)
T4 sequence (P11416 1-462): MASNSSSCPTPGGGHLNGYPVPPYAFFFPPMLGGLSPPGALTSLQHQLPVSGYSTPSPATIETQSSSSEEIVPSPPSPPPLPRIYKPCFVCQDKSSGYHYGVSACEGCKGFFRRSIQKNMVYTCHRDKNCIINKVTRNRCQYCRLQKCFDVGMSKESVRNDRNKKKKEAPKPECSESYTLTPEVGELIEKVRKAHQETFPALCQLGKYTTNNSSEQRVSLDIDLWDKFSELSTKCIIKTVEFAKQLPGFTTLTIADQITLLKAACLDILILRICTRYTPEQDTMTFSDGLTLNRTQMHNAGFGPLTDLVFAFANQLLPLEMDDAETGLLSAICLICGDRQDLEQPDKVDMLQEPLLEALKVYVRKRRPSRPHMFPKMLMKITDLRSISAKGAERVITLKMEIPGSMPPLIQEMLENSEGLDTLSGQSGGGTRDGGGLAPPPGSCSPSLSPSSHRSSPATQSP

## CC1=C(/C=C/C(C)=C/C=C/C(C)=C/C(=O)Nc2ccc(O[C@@H]3O[C@H](C(=O)O)[C@@H](O)[C@H](O)[C@H]3O)cc2)C(C)(C)CCC1 [4-HPR-O-glucuronide, N-(4-hydroxyphenyl)retinamide-O-glucuronide]
[1]
  stability in acidic media: hydrolyzed in acidic media
β-glucuronidase [2]
  hydrolysis by β-glucuronidase: is hydrolysed to glucuronic acid and the aglycone by β-glucuronidase
[3]
  acid hydrolysis (stability): had undergone substantial hydrolysis of the ether linkage
β-glucuronidase [4]
  hydrolysis by β-glucuronidase: also by the enzyme β-glucuronidase
  in vivo half life: quite limited
mRARβ
  inhibition at 1 µM: 4%
[5]
  antiproliferative activity and toxicity vs 4-HPR: greater antiproliferative activity and less toxicity
mRARγ
  inhibition at 1 µM: 7%
mRARα
  inhibition at 1 µM: 14%
